Where two headings read alike, the source gives them in different places.
Experiments:
biobreed rat = test: Preventive therapy in the biobreed rat model of diabetes (occurrence and progression); type: in vivo
Excerpt: The experiments for the primary and secondary prevention of diabetes with α-lipoic acid or its derivatives were investigated using a suitable model system. The biobreed rat is a model of diabetes in which a primary loss of p cells also occurs on account of autoimmune processes. […] A secondary stress of the p cells occurs with the simultaneous development of hyperglycemia on account of the increasing glucose toxicity. Thus, pathogenic processes are reflected in this model that stand in the foreground of the progression of the disease and contribute to the progression in all forms of diabetes.
A preventive therapy with racemic α-lipoic acid as well as the two enantiomers took place in the biobreed rat.
This allows the conclusion that for the primary and secondary prevention of diabetes only the R-configured, dextrorotary enantiomer is suitable, as well as derivatives derived from it with intact dithiolane structure. This can be used just as suitably for the prevention of the secondary loss of function of β cells after transplantation.

NOD mouse = settings: Faust et al., 1994, cited from earlier work
Biobreed rats [1] = test: Biobreed rat, development and progression of diabetes determined by weight loss as surrogate; type: in vivo; settings: chronic ip, tromethamine salt
Description: Biobreed rats (male and female, 130-180 g) 5-19 weeks old were chronically treated (ip) with different doses of R-(+)-α-lipoic acid as tromethamine salt. The development and progression of diabetes was determined by weight loss as surrogate. […] Biobreed rats (male and female, 130-180 g) 5-19 weeks old were each chronically treated (ip) with 36.6 mg of different lipoic acid derivatives (as tromethamine salt). The development and progression of diabetes was determined by daily weight measuring as surrogate.

Biobreed rats [2] = test: Biobreed rat, development and progression of diabetes determined by daily measuring of the blood sugar as surrogate; type: in vivo; settings: chronic ip, tromethamine salt, blood from the caudal vein
Description: Biobreed rats (male and female, 130-180 g) 5-19 weeks old were chronically treated (ip) with different doses of R-(+)-α-lipoic acid as tromethamine salt. The development and progression of diabetes was determined by daily measuring of the blood sugar (taken from the caudal vein) as surrogate. […] Biobreed rats (male and female, 130-180 g) 5-19 weeks old were each chronically treated with 36.6 mg of different lipoic acid derivatives (as tromethamine salt (ip)). with as tromethamine salt. The development and progression of diabetes was determined by daily measuring of the blood sugar (taken from the caudal vein) as surrogate.

Biobreed rats [3] = test: Biobreed rat, survival time and water consumption as further surrogates; type: in vivo; settings: dose-dependent
Description: The survival time and the water consumption were determined as further surrogates for the occurrence and deterioration of diabetes.

β cells = settings: Kaneto et al., 1999; cited from earlier work
[4] = system: isolated pancreatic cells; settings: pre-incubation; radical-generating system or activated macrophages; Burkart et al., 1993; cited from earlier work

For O=C(O)CCCCC1CCSS1 (racemic) [racemic mixture], the occurrence of diabetes (biobreed rat) is listed as “remained without effect”, the “progression of manifest diabetes” value (biobreed rat) is listed as “remained without effect” and the “infiltration with immunocompetent cells into pancreatic tissue (surrogate of β cell destruction)” value (NOD mouse; chronic administration, without cytotoxin) is listed as “had no influence”. For the same compound, the protective action (NOD mouse; with additional intoxication with cyclophosphamide) was “protective action”.
In the case of O=C(O)CCCCC1CCSS1 (stereo not drawn) [R-(+)-α-lipoic acid, 1,2-dithiolane-3-pentanoic acid], the occurrence of diabetes (biobreed rat; listed as R-(+)-enantiomer) was “can be delayed”, the “progression of manifest diabetes” value (biobreed rat; listed as R-(+)-enantiomer) was “distinctly attenuated in a dose-dependent manner” and the “progression of diabetes (weight loss as surrogate)” value (Biobreed rats [1]; Example 1, different doses) was “delayed progression of diabetes in a dose-dependent manner”. The “progression of diabetes (daily weight measuring as surrogate)” value (Biobreed rats [1]; Example 2, 36.6 mg) was “had an effect on the progression of diabetes”, the “progression of a rise in blood sugar” value (Biobreed rats [2]; Example 3, different doses) was “delayed progression of a rise in blood sugar in a dose-dependent manner” and the “progression of diabetes (daily blood sugar as surrogate)” value (Biobreed rats [2]; Example 4, 36.6 mg) was “had an effect on the progression of diabetes”. The “increase of the consumption of water” value (Biobreed rats [3]) was “positive effect” and the survival time (Biobreed rats [3]) was “positive effect”.
In the case of vitamin E, the “effect on the glucose toxicity of β cells” value (β cells) is listed as “no effect”.
For CC(=O)N[C@@H](CS)C(=O)O [N-acetylcystein], the “effect on the glucose toxicity of β cells” value (β cells) is listed as “a certain protective action”.
For O=C(O)CCCC[C@H]1CCSS1 (single isomer, unassigned) [S-(−)- enantiomer], the occurrence of diabetes (biobreed rat) was “remained without effect” and the “progression of manifest diabetes” value (biobreed rat) was “remained without effect”.
In the case of O=C(O)CCCC[C@@H](S)CCS (racemic) [racemic dihydrolipoic acid], the “protection of pancreatic cells from lysis” value [4] is given as “partially protected from lysis”.

Reference: patent US20080095741A1, “R-(+)-alpha-liponic acid for the prevention of diabetes” (MEDA Pharma GmbH & Co. KG, priority 2004, published 2008)
